# Biological target: T1, G1 APOL1 (Homo sapiens, UniProt O14791, I384M/S342G)
# T1 construct: expressed in transfected cells
# T1 sequence (O14791 28-398 S342G/I384M): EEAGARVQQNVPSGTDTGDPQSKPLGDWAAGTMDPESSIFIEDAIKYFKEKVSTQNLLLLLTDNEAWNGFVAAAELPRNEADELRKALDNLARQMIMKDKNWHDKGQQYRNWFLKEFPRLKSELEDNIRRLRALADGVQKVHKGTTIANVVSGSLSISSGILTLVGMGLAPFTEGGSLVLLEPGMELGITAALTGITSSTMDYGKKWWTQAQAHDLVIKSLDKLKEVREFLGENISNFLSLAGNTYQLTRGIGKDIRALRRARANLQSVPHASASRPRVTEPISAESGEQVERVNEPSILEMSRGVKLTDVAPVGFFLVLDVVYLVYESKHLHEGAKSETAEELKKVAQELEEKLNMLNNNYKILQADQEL
# Experiment: Acute APOL1 Thallium Assay with inducible stable clones of HEK 293 cells
# Assay type: cell-based
# Conditions: HEK 293 T-Rex inducible stable clone expressing G1 APOL1; read-out: Thallium Assay (IC50)
# Summary of the method: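 A tetracycline-inducible HEK293 T-Rex clone (G1 DC3.25) expressing G1 APOL1 was plated at 26,000 cells/well, with tetracycline added at plating to induce expression. Cells were loaded with an AM-ester thallium-sensitive dye and stimulated with Tl+. Pore activity was read as the FLIPR Tetra fluorescence increase from Tl+ influx.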
row,Structure (SMILES),IC50 [nM]
1,CCS(=O)(=O)N[C@H]1C[C@@H](c2c(-c3ccc(F)cc3)[nH]c3c(F)cc(F)cc32)C1 [Compound 82],> 1000
2,CC1(C(=O)NC[C@H]2C[C@@H](c3c(-c4ccc(F)cc4)[nH]c4c(F)cc(F)cc43)C2)CCC(=O)NC1 (mixture of isomers) [Compound 306],> 1000
3,CN1CCCC(CC(=O)N[C@H]2C[C@H](c3c(-c4ccc(F)cc4)[nH]c4c(F)cc(F)cc43)C2)C1 (stereo partly shown) [Compound 104],> 1000
4,"NC(=O)C1(C(=O)N[C@H]2C[C@H](c3c(-c4ccc(F)cc4)[nH]c4c(F)cc(F)cc43)C2)CC1 [Compound 446, N^1′-[3-[5,7-difluoro-2-(4-fluorophenyl)-1H-indol-3-yl]cyclobutyl]cyclopropane-1,1-dicarboxamide]",250 to 1000
5,O=C(CC1CCCOC1)N[C@H]1C[C@H](c2c(-c3ccc(F)cc3)[nH]c3c(F)cc(F)cc32)C1 (stereo partly shown) [Compound 118],> 1000
6,CS(=O)(=O)CCCC(=O)N[C@H]1C[C@H](c2c(-c3ccc(F)cc3)[nH]c3c(F)cc(F)cc32)C1 [Compound 99],> 1000
7,O=C(NC[C@H]1C[C@H](c2c(-c3ccc(F)cc3)[nH]c3c(F)cc(F)cc32)C1)c1ccncn1 [Compound 288],> 1000
8,CN1CCC(CC(=O)N[C@H]2C[C@H](c3c(-c4ccc(F)cc4)[nH]c4c(F)cc(F)cc43)C2)C1 (stereo partly shown) [Compound 110],> 1000
9,CC(O)CCNS(=O)(=O)NC[C@H]1C[C@H](c2c(-c3ccc(F)cc3)[nH]c3c(F)cc(F)cc32)C1 (stereo partly shown) [Compound 356],250 to 1000
10,Fc1ccc(-c2[nH]c3c(F)cc(F)cc3c2C2CC(CN[C@@H]3CCOC3)C2)cc1 (stereo partly shown) [Compound 391],> 1000
11,CNS(=O)(=O)NC[C@H]1C[C@H](c2c(-c3ccc(F)cc3)[nH]c3c(F)cc(F)cc32)C1 [Compound 354],> 1000
12,O=C(CC1NC(=O)NC1=O)NC1CC(Cc2c(-c3ccc(F)cc3)[nH]c3c(F)cc(F)cc23)C1 (stereo not shown) [Compound 168],> 1000
13,O=C(Cn1cnnc1)N[C@H]1C[C@@H](c2c(-c3ccc(F)cc3)[nH]c3c(F)cc(F)cc32)C1 [Compound 33],> 1000
14,O=C(CC1(O)CCCCC1)N[C@H]1C[C@@H](c2c(-c3ccc(F)cc3)[nH]c3c(F)cc(F)cc32)C1 [Compound 47],> 1000
15,O=S(=O)(NC[C@H]1C[C@H](c2c(-c3ccc(F)cc3)[nH]c3c(F)cc(F)cc32)C1)NC(CO)C(F)(F)F (stereo partly shown) [Compound 358],> 1000
16,O=C1CC(C(=O)N[C@H]2C[C@H](c3c(-c4ccc(F)cc4)[nH]c4c(F)cc(F)cc43)C2)CN1 (stereo partly shown) [Compound 140],> 1000
17,CC(C)(C)OC(=O)NC1(C(=O)NC[C@H]2C[C@H](c3c(-c4ccc(F)cc4)[nH]c4c(F)cc(F)cc43)C2)CCC1 [Compound 286],> 1000
18,OCC1(NCC2CC(c3c(-c4ccc(F)cc4)[nH]c4c(F)cc(F)cc34)C2)COC1 (stereo not shown) [Compound 390],> 1000
19,CC(C)(CO)NCC1CC(c2c(-c3ccc(F)cc3)[nH]c3c(F)cc(F)cc23)C1 (stereo not shown) [Compound 407],> 1000
20,Cn1ccc(CC(=O)NC[C@H]2C[C@@H](c3c(-c4ccc(F)cc4)[nH]c4c(F)cc(F)cc43)C2)n1 [Compound 278],> 1000
21,"CN(C)S(=O)(=O)NC[C@H]1C[C@H](c2c(-c3ccc(F)cc3)[nH]c3c(F)cc(F)cc32)C1 [Compound 370, 3-[3-[(dimethylsulfamoylamino)methyl]cyclobutyl]-5,7-difluoro-2-(4-fluorophenyl)-1H-indole]",> 1000

row,Structure (SMILES),IC50 [nM]
1,CC(C(=O)N[C@H]1C[C@@H](c2c(-c3ccc(F)cc3)[nH]c3c(F)cc(F)cc32)C1)N(C)C (mixture of isomers) [Compound 77],> 1000
2,CC(C)(C)OC(=O)NCCNCC1CC(c2c(-c3ccc(F)cc3)[nH]c3c(F)cc(F)cc23)C1 (stereo not shown) [Compound 401],> 1000
3,C[C@@H](N)C(=O)NC[C@H]1C[C@H](c2c(-c3ccc(F)cc3)[nH]c3c(F)cc(F)cc32)C1 [Compound 236],> 1000
4,"O=C(CCO)NC1CC(c2c(-c3ccc(F)cc3)[nH]c3c(F)cc(C(F)(F)F)cc23)C1 (mixture of isomers) [Compound 2, N-[3-[7-fluoro-2-(4-fluorophenyl)-5-(trifluoromethyl)-1H-indol-3-yl]cyclobutyl]-3-hydroxy-propanamide]",250 to 1000
5,O=C1NCCC1NCC1CC(c2c(-c3ccc(F)cc3)[nH]c3c(F)cc(F)cc23)C1 (stereo not shown) [Compound 386],250 to 1000
6,CN1CCC(CC(=O)NC[C@H]2C[C@@H](c3c(-c4ccc(F)cc4)[nH]c4c(F)cc(F)cc43)C2)CC1 [Compound 239],> 1000
7,"CS(=O)(=O)NC[C@H]1C[C@H](c2c(-c3ccc(F)cc3)[nH]c3c(F)cc(F)cc32)C1 [Compound 412, N-(((1r,3r)-3-(5,7-difluoro-2-(4-fluorophenyl)-1H-indol-3-yl)cyclobutyl)methyl)methanesulfonamide]",250 to 1000
8,"O[C@H]1C[C@@H](c2c(-c3ccc(F)cc3)[nH]c3c(F)cc(F)cc32)C1 [Compound 175, (1s,3s)-3-(5,7-difluoro-2-(4-fluorophenyl)-1H-indol-3-yl)cyclobutan-1-ol]",250 to 1000
9,O=C(NC[C@H]1C[C@@H](c2c(-c3ccc(F)cc3)[nH]c3c(F)cc(F)cc32)C1)C1CCO1 (stereo partly shown) [Compound 220],250 to 1000
10,"NC(=O)C(=O)NC[C@H]1C[C@@H](c2c(-c3ccc(F)cc3)[nH]c3c(F)cc(F)cc32)C1 [Compound 453, N^1-(((1s,3s)-3-(5,7-difluoro-2-(4-fluorophenyl)-1H-indol-3-yl)cyclobutyl)methyl)oxalamide]",> 1000
11,O=S(=O)(NC[C@H]1C[C@H](c2c(-c3ccc(F)cc3)[nH]c3c(F)cc(F)cc32)C1)N[C@@H](CO)C(F)F [Compound 347],> 1000
12,O[C@H]1C[C@H](NCC2CC(c3c(-c4ccc(F)cc4)[nH]c4c(F)cc(F)cc34)C2)C1 (stereo partly shown) [Compound 387],250 to 1000
13,CS(=O)(=O)NCC(=O)N[C@H]1C[C@@H](c2c(-c3ccc(F)cc3)[nH]c3c(F)cc(F)cc32)C1 [Compound 42],> 1000
14,"CCCS(=O)(=O)N[C@H]1C[C@@H](c2c(-c3ccc(F)cc3)[nH]c3c(F)cc(F)cc32)C1 [Compound 79, N-((1s,3s)-3-(5,7-difluoro-2-(4-fluorophenyl)-1H-indol-3-yl)cyclobutyl)propane-1-sulfonamide]",> 1000
15,CC(=O)N1CC[C@H](C(=O)NC[C@H]2C[C@H](c3c(-c4ccc(F)cc4)[nH]c4c(F)cc(F)cc43)C2)C1 [Compound 274],> 1000
16,CN1CCC(CC(=O)N[C@H]2C[C@H](c3c(-c4ccc(F)cc4)[nH]c4c(F)cc(F)cc43)C2)CC1 [Compound 117],> 1000
17,O=C(CN1CCCC1)N[C@H]1C[C@H](c2c(-c3ccc(F)cc3)[nH]c3c(F)cc(F)cc32)C1 [Compound 112],> 1000
18,O=C(CC1CC(F)(F)C1)N[C@H]1C[C@H](c2c(-c3ccc(F)cc3)[nH]c3c(F)cc(F)cc32)C1 [Compound 98],> 1000
19,CN1CCC(NCC2CC(c3c(-c4ccc(F)cc4)[nH]c4c(F)cc(F)cc34)C2)C1=O (stereo not shown) [Compound 381],250 to 1000
20,Cn1cc(S(=O)(=O)N[C@H]2C[C@@H](c3c(-c4ccc(F)cc4)[nH]c4c(F)cc(F)cc43)C2)cn1 [Compound 81],> 1000

# Same assay, conditions: Thallium Assay (IC50), HEK 293 T-Rex inducible stable clone expressing G1 APOL1
row,Structure (SMILES),IC50 [nM]
1,NCC(=O)N[C@H]1C[C@H](c2c(-c3ccc(F)cc3)[nH]c3c(F)cc(F)cc32)C1 [Compound 137],< 250
2,CC(C)(C)OC(=O)N1CC[C@H]1C(=O)NC[C@H]1C[C@H](c2c(-c3ccc(F)cc3)[nH]c3c(F)cc(F)cc32)C1 [Compound 216],250 to 1000

# Source: US12281102B2, “Inhibitors of APOL1 and methods of using same” (Vertex Pharmaceuticals Incorporated, priority 2020, dated 2025)
